Experimental findings from article PMC4742190, “Mitotic entry: Non-genetic heterogeneity exposes the requirement for Plk1” (Oncotarget, 2015) are described below.

Some targets named below: Plk3 (Homo sapiens, UniProt Q9H4B4); Plk2 (Homo sapiens, UniProt Q9NYY3); Plk1 (Homo sapiens, UniProt P53350).
Test in all cases: enzyme (kinase) assay
Holding throughout (assay type): biochemical

Chain of Plk1 (P53350 2-603): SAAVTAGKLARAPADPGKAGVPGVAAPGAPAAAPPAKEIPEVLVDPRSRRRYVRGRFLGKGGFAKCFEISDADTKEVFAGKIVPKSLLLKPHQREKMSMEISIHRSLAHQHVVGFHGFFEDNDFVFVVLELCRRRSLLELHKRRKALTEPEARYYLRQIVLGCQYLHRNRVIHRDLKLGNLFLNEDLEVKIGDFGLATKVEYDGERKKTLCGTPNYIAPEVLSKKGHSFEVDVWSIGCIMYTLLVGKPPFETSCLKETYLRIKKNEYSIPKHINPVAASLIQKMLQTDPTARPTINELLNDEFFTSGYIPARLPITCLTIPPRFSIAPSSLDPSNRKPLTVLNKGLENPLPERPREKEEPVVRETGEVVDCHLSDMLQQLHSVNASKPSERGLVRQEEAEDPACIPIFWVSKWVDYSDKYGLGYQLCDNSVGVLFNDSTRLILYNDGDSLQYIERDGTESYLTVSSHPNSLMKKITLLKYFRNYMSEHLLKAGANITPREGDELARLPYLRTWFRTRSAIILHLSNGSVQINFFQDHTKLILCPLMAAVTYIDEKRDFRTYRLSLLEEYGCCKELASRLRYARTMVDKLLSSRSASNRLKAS
Chain of Plk3 (Q9H4B4 whole entry): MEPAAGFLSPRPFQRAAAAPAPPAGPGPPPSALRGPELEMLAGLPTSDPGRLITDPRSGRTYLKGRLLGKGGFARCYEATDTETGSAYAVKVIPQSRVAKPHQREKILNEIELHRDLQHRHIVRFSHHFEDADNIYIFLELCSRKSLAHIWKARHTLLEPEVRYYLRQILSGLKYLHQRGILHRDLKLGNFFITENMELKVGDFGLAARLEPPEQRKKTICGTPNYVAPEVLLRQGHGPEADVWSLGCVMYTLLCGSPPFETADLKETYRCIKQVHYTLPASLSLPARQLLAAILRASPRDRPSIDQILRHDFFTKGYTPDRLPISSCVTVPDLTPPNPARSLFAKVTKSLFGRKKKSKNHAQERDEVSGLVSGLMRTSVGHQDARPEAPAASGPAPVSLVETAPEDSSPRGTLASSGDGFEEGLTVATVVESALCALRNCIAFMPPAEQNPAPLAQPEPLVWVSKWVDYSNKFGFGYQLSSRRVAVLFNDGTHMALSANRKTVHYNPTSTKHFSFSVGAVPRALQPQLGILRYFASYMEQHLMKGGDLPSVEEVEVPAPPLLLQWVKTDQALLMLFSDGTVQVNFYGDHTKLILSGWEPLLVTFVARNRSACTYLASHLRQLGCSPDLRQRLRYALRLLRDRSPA
Chain of Plk2 (Q9NYY3 whole entry): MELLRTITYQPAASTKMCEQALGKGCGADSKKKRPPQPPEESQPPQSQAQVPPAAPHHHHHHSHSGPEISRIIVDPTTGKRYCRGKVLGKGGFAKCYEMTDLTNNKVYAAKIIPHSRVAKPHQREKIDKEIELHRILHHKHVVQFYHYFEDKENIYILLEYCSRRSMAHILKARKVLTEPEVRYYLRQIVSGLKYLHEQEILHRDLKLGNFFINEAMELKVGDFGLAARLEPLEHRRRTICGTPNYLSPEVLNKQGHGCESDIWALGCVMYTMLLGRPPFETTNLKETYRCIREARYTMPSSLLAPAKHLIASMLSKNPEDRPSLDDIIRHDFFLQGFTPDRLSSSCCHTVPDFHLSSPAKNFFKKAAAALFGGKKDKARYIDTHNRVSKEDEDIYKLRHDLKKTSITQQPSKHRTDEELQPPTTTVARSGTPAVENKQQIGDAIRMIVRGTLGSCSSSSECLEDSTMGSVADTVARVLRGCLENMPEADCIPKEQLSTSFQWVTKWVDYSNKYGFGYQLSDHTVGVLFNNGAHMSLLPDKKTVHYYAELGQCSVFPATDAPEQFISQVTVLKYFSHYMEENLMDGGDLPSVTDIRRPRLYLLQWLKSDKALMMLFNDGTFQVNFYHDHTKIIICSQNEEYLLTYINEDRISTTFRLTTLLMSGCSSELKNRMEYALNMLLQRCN

As for CYC140844, the IC50 against Plk3 is 0.702 µM; against Plk2 it was 0.113 µM; against Plk1 it was 0.036 µM.

What is called IC50 is the concentration that gives 50% inhibition. A higher IC50 goes with weaker potency in that assay.
